Tests used:
[1] = target: T1, ALK4 (ACVR1B) (Homo sapiens, UniProt P36896); experiment: KINOMEscan affinity, competition binding
T1 construct: purchased Eurofins (KINOMEscan service)
Experimental: (§1) The affinity, measured as Kd (dissociation constants), of the compound of formula I for the ALK family was determined by using the KINOMEscan™ Technology from Eurofins. Selectivity in front of ALK1 (ACVRL1), ALK2 (ACVR1), ALK3 (BMPR1A), ALK4 (ACVR1B), ALK6 (BMPR1B), ACVR2B and TGFβR2 was determined.
(§2) The assay is performed by combining three components: DNA-tagged kinase; immobilized ligand; and a test compound. The ability of the test compound to compete with the immobilized ligand is measured via quantitative PCR of the DNA tag.
(§3) Test compounds were prepared as 111× stocks in 100% DMSO. Kds were determined using an 11-point 3-fold compound dilution series with three DMSO control points being the top concentration 30 μM. […] The compounds were then diluted directly into the assays such that the final concentration of DMSO was 0.9%. All reactions performed in polypropylene 384-well plate. Each was a final volume of 0.02 ml. […] The beads were then re-suspended in elution buffer (1×PBS, 0.05% Tween 20, 0.5 μM non-biotinylated affinity ligand) and incubated at room temperature with shaking for 30 minutes. The kinase concentration in the eluates was measured by qPCR.
(§4) Dissociation constants (Kds) for test compound-kinase interactions are calculated by measuring the amount of kinase captured on the solid support as a function of the test compound concentration.

[2] = target: T2, ALK5 (TGFBR1) (Homo sapiens, UniProt P36897); experiment: KINOMEscan affinity, competition binding
T2 sequence (P36897 34-503): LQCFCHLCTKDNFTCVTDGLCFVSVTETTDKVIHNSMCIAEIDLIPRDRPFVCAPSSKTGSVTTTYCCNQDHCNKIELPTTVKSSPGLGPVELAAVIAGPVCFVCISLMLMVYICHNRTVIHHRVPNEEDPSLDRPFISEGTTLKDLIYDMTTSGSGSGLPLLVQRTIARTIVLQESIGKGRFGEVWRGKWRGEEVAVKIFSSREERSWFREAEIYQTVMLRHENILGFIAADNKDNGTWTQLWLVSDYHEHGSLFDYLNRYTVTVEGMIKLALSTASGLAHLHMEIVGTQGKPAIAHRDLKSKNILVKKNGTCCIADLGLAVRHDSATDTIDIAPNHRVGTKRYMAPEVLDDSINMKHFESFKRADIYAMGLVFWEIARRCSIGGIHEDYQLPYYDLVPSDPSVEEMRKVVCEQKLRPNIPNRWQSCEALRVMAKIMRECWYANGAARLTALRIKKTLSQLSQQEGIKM
Experimental: as §1, §2, §3, §4

T1 sequence (P36896 24-505): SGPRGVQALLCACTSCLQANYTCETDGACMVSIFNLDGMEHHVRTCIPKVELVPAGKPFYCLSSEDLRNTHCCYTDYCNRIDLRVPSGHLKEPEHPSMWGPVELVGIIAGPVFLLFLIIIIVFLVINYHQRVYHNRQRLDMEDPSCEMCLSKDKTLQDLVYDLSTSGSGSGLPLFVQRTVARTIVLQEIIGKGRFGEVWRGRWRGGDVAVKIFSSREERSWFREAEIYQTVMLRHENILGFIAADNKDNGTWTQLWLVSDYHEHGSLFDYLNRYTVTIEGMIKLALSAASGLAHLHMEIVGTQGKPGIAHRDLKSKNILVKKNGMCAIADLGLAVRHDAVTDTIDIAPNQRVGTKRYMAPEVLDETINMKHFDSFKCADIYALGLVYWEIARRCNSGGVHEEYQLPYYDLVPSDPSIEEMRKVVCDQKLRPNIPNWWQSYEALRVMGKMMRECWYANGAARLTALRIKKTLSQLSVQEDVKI

`Cc1cccc(-c2nn3c(c2-c2ccnc4ccc(O)cc24)CCC3)n1` [compound of formula I, 4-(2-(6-methylpyridin-2-yl)-5,6-dihydro-4H-pyrrolo[1,2-b]pyrazol-3-yl)quinolin-6-ol] was tested. Which Selectivity improvement ([1]; (I) versus Galunisertib) did it give?
The Selectivity improvement was 1.4.

And the “Selectivity against ALK5” value ([1]; ALK4 versus ALK5)?
Its value is 0.7.

What about the “Selectivity against ALK5” value ([2]; ALK5 versus ALK5) of the same compound?
Its value is 1.

What about the Kd ([2]; KINOMEscan) of the same compound?
The Kd was 20 nM.

What about the “ALK5 binding affinity, times higher than Galunisertib” value ([2]; versus published galunisertib data) of the same compound?
The value was 8.6 times.

— patent US20220089600A1, “TGFß INHIBITOR AND PRODRUGS” (FUNDACIÓ INSTITUT DE RECERCA BIOMÈDICA (IRB BARCELONA), priority 2018, published 2022)
